Like-named read-outs stand apart in the source and are kept apart here.

We go through five compounds from patent publication US20240269125A1, “METHODS OF TREATING CORONAVIRUS INFECTIONS BY CO-ADMINISTERING AN FKBP LIGAND AND AN ANTIVIRAL AGENT” (priority 2020, published 2024).

Series [1] has as its system SARS CoV-2 (USA-WA1/2020). Briefly: organism not typed. The class given is cell-based.
Series [2] in a line: in vitro. The settings on record: African green monkey.
Series [3] deals with SARS CoV-2 (USA-WA1/2020). Briefly: organism not typed. It is filed as cell-based. The settings on record: for reduction in SARS COV-2 virus: Example 6.
In series [4] the test system is SARS COV-2 (USA_WA1/2020). The class given is cell-based. The settings on record: Example 10; remdesivir alone up to 6,666.667 nM; FK1706 alone up to 60,000 nM.
Series [5] concerns Vero E6 cells. The settings on record: Table 1, Example 6; 50% cell death in absence of virus, day 4.
Series [6] in a line: in vitro. The note with it: African green monkey, TC50, Table 1, Example 6.
Setting [7] is: TC50, Table 2, Example 7, 50% cell death in absence of virus, day 3.
Setting [8] is: Example 9, antiviral alone at sub-therapeutic level (molnupiravir 0.3 μM; remdesivir 3 μM).
The mark [9] stands for this setting: TC50, Table 4, Example 9, single conc. (sub-therapeutic antiviral alone).

What is called EC50 is the concentration that produces a half-maximal response. For `O=C(C(=O)N1CCCC[C@H]1C(=O)NCCCc1ccccc1)c1ccccc1` [ElteN378], in series [1] (Example 7, ElteN378 0.12-30 μM, alone or co-administered with fixed antiviral), the “reduction in SARS COV-2 virus” value is on record as 0-7%. The EC50 in series [1] (Vero C1008, 72 h, Table 2, Example 7, Vero E6, concentration inhibiting CPE by 50%, day 3, read-out: EC50) is greater than 30 µM. The CC50 in series [2] (setting [7]) is greater than 30 µM.
Turning to `CO[C@H]1C[C@@H](C)C/C(C)=C/[C@@H](CC(C)=O)C(=O)C[C@H](O)[C@@H](C)C(/C(C)=C/[C@@H]2CC[C@@H](O)[C@H](OC)C2)OC(=O)C2CCCCC2C(=O)C(=O)[C@]2(O)O[C@H]1[C@@H](OC)C[C@H]2C` (some centres unmarked) [FK1706], the “reduction in SARS COV-2 virus” value is listed as 0-7% in series [3] (FK1706 11-90 μM, alone or co-administered with fixed antiviral) and 0-10% in series [1] (Example 8, FK1706 alone 2.85-90 μM). Further, the concentration for a half-maximal effect (EC50) was greater than 90 µM in series [3] (Vero C1008, 96 h, Table 1, Example 6, Vero E6, concentration inhibiting CPE by 50%, day 4, read-out: EC50) and greater than 90 µM in series [1] (Vero C1008, 72 h, Table 3, Example 8, Vero E6, day 3, read-out: EC50). Also, the “antiviral activity as single agent” value in series [4] is “no significant antiviral activity”. This compound also came in with a TC50 in series [5] greater than 90 µM. In series [2] (TC50, Table 3, Example 8, day 3), this compound came in with a CC50 greater than 90 µM.
As for `CCC(C)(C)C(=O)C(=O)N1CCC[C@H]1C(=O)O` [GPI-1485], the “reduction in SARS COV-2 virus” value in series [1] (Example 9, GPI-1485 40-320 μM, alone or co-administered with fixed antiviral) is listed as 0-6%. For the same compound, the EC50 in series [1] (Vero C1008, 72 h, Table 4, Example 9, Vero E6, day 3) was greater than 320 µM. In series [2] (TC50, Table 4, Example 9, day 3), this compound showed a CC50 greater than 320 µM.
For `CC(C)C(=O)OC[C@H]1O[C@@H](n2ccc(=NO)[nH]c2=O)[C@H](O)[C@@H]1O` [Molnupiravir, ((2R,3S,4R,5R)-3,4-dihydroxy-5-(4-(hydroxyimino)-2-oxo-3,4-dihydropyrimidin-1(2H)-yl)tetrahydrofuran-2-yl)methyl isobutyrate], the “reduction in SARS COV-2 virus” value is on record as 4-13% in series [1] (Example 8, molnupiravir alone 0.3 μM) and 4-13% in series [1] (setting [8]). Besides, the EC50 in series [1] (Table 3, Example 8, single conc. (0.3 μM molnupiravir alone), read-out: EC50) was greater than 0.3 µM; in series [1] (Table 4, Example 9, single conc. (sub-therapeutic antiviral alone), read-out: EC50) it was greater than 0.3 µM. The CC50 was greater than 0.3 µM in series [2] (TC50, Table 3, Example 8, single conc. (0.3 μM molnupiravir alone)) and greater than 0.3 µM in series [2] (setting [9]).
On to `CCC(CC)COC(=O)[C@H](C)N[P@](=O)(OC[C@H]1O[C@@](C#N)(c2ccc3c(N)ncnn23)[C@H](O)[C@@H]1O)Oc1ccccc1` [Remdesivir], for which the EC50 in series [3] was greater than 3 µM; in series [3] (Vero C1008, 96 h), 3.63 µM; in series [1] (Table 2, Example 7, single conc. (sub-therapeutic antiviral alone)) it was greater than 3 µM; in series [1] (Table 4, Example 9, single conc. (sub-therapeutic antiviral alone)) it was greater than 0.3 µM; in series [1] (Vero C1008, 72 h, Table 2, Example 7, Vero E6, concentration inhibiting CPE by 50%, day 3) it was 7.31 µM. In addition, the “reduction in SARS COV-2 virus” value in series [3] (antiviral alone at sub-therapeutic level (remdesivir 3 μM; M128533 1 μg/mL)) was 5-14%; in series [1] (Example 7, antiviral alone at sub-therapeutic level (remdesivir 3 μM; M128533 1 μg/mL)), 2-19%; in series [1] (setting [8]) it was 20-30%. The CC50 is greater than 100 µM in series [6] (50% cell death in absence of virus, day 4); greater than 3 µM in series [6] (single conc. (sub-therapeutic antiviral alone)); greater than 100 µM in series [2] (setting [7]); greater than 3 µM in series [2] (TC50, Table 2, Example 7, single conc. (sub-therapeutic antiviral alone)); greater than 0.3 µM in series [2] (setting [9]).
